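Step 1: Grow cells in 96-well plates. Step 2: Expose to compound for 48 hours at 5 concentrations. Step 3: Interpolate endpoints linearly; if unreached, use highest concentration. GI50 marks 50% less growth. TGI is the concentration that stops growth completely.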
What was measured:
Assay in all cases: NCI-60 cell line screen, 48 h
[1] = system: 786-0 renal
[2] = system: CAKI-1 renal
[3] = system: COLO 205 colon
[4] = system: MDA-N
[5] = system: RPMI-8226 leukemia
[6] = system: RXF 393 renal
[7] = system: SNB-19 CNS
[8] = system: SR leukemia
[9] = system: UACC-257 melanoma
[10] = system: SW-620 colon
[11] = system: BT-549 breast

Compound	TGI [1] [µM]	TGI [2] [µM]	TGI [3] [µM]	TGI [4] [µM]	TGI [5] [µM]	TGI [6] [µM]	TGI [7] [µM]	TGI [8] [µM]	TGI [9] [µM]	TGI [10] [µM]	TGI [11] [µM]	GI50 [2] [µM]	GI50 [3] [µM]	GI50 [4] [µM]	GI50 [5] [µM]	GI50 [6] [µM]	GI50 [7] [µM]	GI50 [8] [µM]	GI50 [10] [µM]
CSCCCS/C1=C/CCCCCCCCCC1	> 100	> 100	> 100	> 100	> 100	> 100	> 100	> 100	> 100	–	–	–	–	–	–	–	–	–	–
COc1cc(C2SC(C)C(=O)N2c2ccc(-c3csc(NS(=O)(=O)c4ccc(Cl)c(OC)c4)n3)cc2)ccc1O (stereo not drawn)	> 100	> 100	> 100	> 100	–	> 100	> 100	> 100	> 100	> 100	–	–	–	–	–	–	–	–	–
CCOC(=O)c1nc2ccccc2nc1Oc1ccc(C(=O)OC)cc1	> 100	> 100	> 100	> 100	> 100	> 100	> 100	–	> 100	> 100	> 100	–	–	–	–	–	–	–	–
COC(=O)CCc1ccc2c(c1)C(=O)CC2	> 100	–	–	> 100	> 100	> 100	> 100	> 100	> 100	> 100	–	–	–	–	–	–	–	–	–
O=C(NC1CCCCC1)c1cc2ccccc2cc1O	84.5	> 100	> 100	–	46.6	58.5	> 100	87.2	> 100	> 100	–	–	–	–	–	–	–	–	–
O=[N+]([O-])c1ccccc1S(=O)(=O)c1ccccc1	–	–	> 100	–	> 100	> 100	–	> 100	> 100	> 100	–	–	–	–	–	–	–	–	–
COc1cc2cc(C(=O)N3CC(CCl)c4c3cc(NC(=O)OCc3ccc([N+](=O)[O-])cc3)c3ccccc43)[nH]c2c(OC)c1OC (stereo not drawn)	> 39.3	> 39.4	> 100	> 100	> 100	> 100	> 100	–	> 100	> 100	> 100	–	–	–	–	–	–	–	–
CNC(=S)N/N=C(\C(=N/NC(=S)NC)c1ccccn1)c1ccccn1	> 84.8	> 100	> 100	> 100	> 100	41.1	> 100	–	> 100	> 100	> 100	–	–	–	–	–	–	–	–
Cc1ccc2c(=O)c(C(=O)Nn3c(C)csc3=S)c[nH]c2n1	> 100	> 100	> 100	> 100	> 100	> 100	> 100	–	> 100	> 100	> 100	–	–	–	–	–	–	–	–
COc1ccc2c(c1)C/C(=C\c1cccc3ccccc13)C2=O	77.7	> 100	–	–	> 100	22.5	> 100	> 100	–	> 100	> 100	–	–	–	–	–	–	–	–
O=c1[nH]c(=O)n(C2CC(O)C(CO)O2)cc1NN=NCCCc1ccccc1 (stereo not drawn)	> 100	> 100	> 100	> 100	–	> 100	–	> 100	> 100	–	–	–	–	–	–	–	–	–	–
O=c1sc2c(s1)-c1sc(=O)sc1SS2	> 100	> 100	> 65	> 100	> 100	> 100	> 100	–	> 100	> 100	> 100	–	–	–	–	–	–	–	–
C=CCN1C(=O)/C(=C/c2ccco2)N=C1SC1OC(COC(C)=O)C(OC(C)=O)C(OC(C)=O)C1OC(C)=O (stereo not drawn)	–	> 100	> 100	–	> 100	> 100	–	> 100	> 100	> 100	> 100	–	–	–	–	–	–	–	–
COP(=O)(OC)C(NC(=O)C(F)(F)F)(c1ccccc1)C(F)(F)F (stereo not drawn)	> 100	> 100	> 100	–	> 100	> 100	> 100	> 100	> 100	> 100	–	–	–	–	–	–	–	–	–
CC1(C)O[C@@H](CCl)C[C@H](C#N)O1	> 100	> 100	> 100	–	> 100	> 100	> 100	> 100	> 100	> 100	–	–	–	–	–	–	–	–	–
CCCC(C)n1c(C)nc2c1C(=O)c1ccccc1C2=O (stereo not drawn)	> 100	–	> 100	–	–	69.2	> 100	> 100	63.1	> 100	–	–	–	–	–	–	–	–	–
O=C1c2ccccc2C(=O)c2sc(Nc3ccccc3C(F)(F)F)nc21	41	21.1	27.8	30.8	74.4	39	55.2	> 100	32.4	24.4	–	–	–	–	–	–	–	–	–

Compound	TGI [1] [µM]	TGI [2] [µM]	TGI [3] [µM]	TGI [4] [µM]	TGI [5] [µM]	TGI [6] [µM]	TGI [7] [µM]	TGI [8] [µM]	TGI [9] [µM]	TGI [10] [µM]	TGI [11] [µM]	GI50 [2] [µM]	GI50 [3] [µM]	GI50 [4] [µM]	GI50 [5] [µM]	GI50 [6] [µM]	GI50 [7] [µM]	GI50 [8] [µM]	GI50 [10] [µM]
O=[N+]([O-])c1ccc(N/N=C/CC(O)(C(F)(F)F)C(F)(F)F)c([N+](=O)[O-])c1	> 10	> 10	> 10	> 10	> 10	> 10	> 10	> 10	> 10	> 10	–	–	–	–	–	–	–	–	–
CC(C)CCCC(C)[C@H]1CC[C@H]2[C@@H]3CC[C@H]4C[C@@H](CCC=C(c5cc(Cl)c(O)c(C(=O)OC(C)C)c5)c5cc(Cl)c(O)c(C(=O)OC(C)C)c5)CC[C@]4(C)[C@H]3CC[C@]12C (stereo partly drawn)	> 50	> 50	> 50	> 50	> 50	> 50	> 50	–	–	> 50	> 50	–	–	–	–	–	–	–	–
CC1(C)C(CCO)CC1n1cc(I)c(=O)[nH]c1=O (stereo not drawn)	> 100	> 100	> 100	> 100	> 100	> 100	> 100	–	> 100	> 100	–	–	–	–	–	–	–	–	–
C=C1C(=O)O[C@H]2[C@H]3O[C@@H](C[C@@H]12)[C@@]1(C)CC[C@H](O1)[C@H](C)CCC[C@H]3C	2.63	2.58	3.33	–	2.35	5.24	21.7	0.448	3.41	4.26	2.17	–	–	–	–	–	–	–	–
O=C(CCC(=O)CC(O)(C(F)(F)F)C(F)(F)F)CC(O)(C(F)(F)F)C(F)(F)F	> 100	–	96.3	–	97.8	> 100	72.4	> 100	> 100	> 100	–	–	–	–	–	–	–	–	–
CCCCCCCCCCCCc1ccc(S(=O)(=O)O)cc1.[Zn+2]	> 100	> 100	> 100	> 100	> 100	> 100	> 100	–	> 100	> 100	–	–	–	–	–	–	–	–	–
O=C1C=C2SC3C[C@@]24CC1[N+]1=c2c4c(c(O)c4c2=C(C=N4)CC1)N3	–	7.99	3.57	–	7.38	3.84	9.66	–	3.17	5.44	–	–	–	–	–	–	–	–	–
Nc1ccccc1.[C-]#[O+].[C-]#[O+].[C-]#[O+].[C-]#[O+].[C-]#[O+].[Cr]	–	8.3	> 10	> 10	> 10	> 10	> 10	> 10	–	> 10	–	2.04	3.52	3.53	3.39	3.22	6.89	4.64	> 10
CSC1C(=O)Nc2ccc3ccccc3c21 (stereo not drawn)	32.6	38.9	43.3	> 100	60.7	–	> 100	–	44.8	49	50.7	–	–	–	–	–	–	–	–
COc1cc([C@@H]2c3cc4c(cc3[C@@H](Nc3ccccc3C(=O)c3ccccc3)[C@H]3COC(=O)[C@H]23)OCO4)cc(OC)c1OC	> 100	> 100	1.42	–	–	> 100	> 100	–	> 100	> 81.6	> 100	–	–	–	–	–	–	–	–
O=S(OC12CC3CC(CC(C3)C1)C2)c1cc(Cl)cc(Cl)c1OCc1ccccc1 (stereo not drawn)	–	–	–	–	–	> 100	> 100	> 100	> 100	–	–	–	–	–	–	–	–	–	–
CC(=O)OC(Cc1ccc2ccccc2n1)(C(F)(F)F)C(F)(F)F	6.37	2.96	1.98	3.54	–	2.84	14.7	–	0.328	12	4.17	–	–	–	–	–	–	–	–
CCOC(=O)c1c(Br)c(-c2ccc(OC)cc2)c(Br)n1C	73.4	–	> 100	–	> 100	45	97.7	78.3	95.8	38.2	> 100	–	–	–	–	–	–	13.3	–
CCOC(=O)C(CC(C)C)NC(=O)CSc1nnc(COc2ccc(Cl)cc2)n1-c1ccccc1 (stereo not drawn)	28.6	–	36.2	–	54.5	34.3	31.6	15.6	23.2	49.7	32.1	–	–	–	–	–	–	–	–
O=C1Nc2ccccc2Cn2c1cc1oc(-c3ccccc3)cc12	45.4	> 100	> 100	> 100	–	53	66.5	> 100	> 100	> 100	–	–	–	–	–	–	–	–	–
O=C1c2ccccc2C(=O)c2c(O)c(NCCCNCCO)cc(O)c21	23	22.4	20.8	–	25.5	–	–	–	–	18.4	–	–	–	–	–	–	–	–	–
COc1cc(C2=NNC(=O)c3ccccc3N2c2nc(-c3cccs3)nc3ccc(Br)cc23)cc(OC)c1OC	> 100	73.1	> 100	–	12.9	–	> 100	–	> 100	> 100	> 100	–	–	–	–	–	–	–	–

— PubChem BioAssay (NCI)
